Measurements taken from BindingDB's records for doi:10.1016/j.bmcl.2009.11.072 (Roche Palo Alto, 2010).
pIC50: −log10 of the molar value.

Experiment: Antagonist activity at human recombinant CCR5 by cell-cell fusion assay

SMILES | pIC50
Cc1ncnc(C)c1C(=O)N1C[C@H]2CN(CCC3(c4cccc(F)c4)CCN(C(=O)C(C)(C)CO)CC3)C[C@H]2C1 [1-(4-(2-((3aR,6aS)-5-(4,6-dimethylpyrimidine-5-carbonyl)hexahydropyrrolo[3,4-c]pyrrol-2(1H)-yl)ethyl)-4-(3-fluorophenyl)piperidin-1-yl)-3-hydroxy-2,2-dimethylpropan-1-one] | 6.00
Cc1ncnc(C)c1C(=O)N1C[C@H]2CN(CCC3(c4cccc(F)c4)CCN(C(=O)C(C)(C)C)CC3)C[C@H]2C1 [1-(4-(2-((3aR,6aS)-5-(4,6-dimethylpyrimidine-5-carbonyl)hexahydropyrrolo[3,4-c]pyrrol-2(1H)-yl)ethyl)-4-(3-fluorophenyl)piperidin-1-yl)-2,2-dimethylpropan-1-one] | 6.89
Cc1ncnc(C)c1C(=O)N1C[C@H]2CN(CCC3(c4ccccc4)CN(C(=O)C4CCOC4)C3)C[C@H]2C1 (stereo partly drawn) [(4,6-dimethylpyrimidin-5-yl)((3aR,6aS)-5-(2-(3-phenyl-1-(tetrahydrofuran-3-carbonyl)azetidin-3-yl)ethyl)hexahydropyrrolo[3,4-c]pyrrol-2(1H)-yl)methanone] | 6.25
Cc1ncnc(C)c1C(=O)N1C[C@H]2CN(CCC3(c4ccccc4)CN(C(=O)CC4CCCC4)C3)C[C@H]2C1 [2-cyclopentyl-1-(3-(2-((3aR,6aS)-5-(4,6-dimethylpyrimidine-5-carbonyl)hexahydropyrrolo[3,4-c]pyrrol-2(1H)-yl)ethyl)-3-phenylazetidin-1-yl)ethanone] | 6.87
Cc1ncnc(C)c1C(=O)N1C[C@H]2CN(CCC3(c4cccc(F)c4)CCN(C(=O)CC(C)(C)C)CC3)C[C@H]2C1 [1-(4-(2-((3aR,6aS)-5-(4,6-dimethylpyrimidine-5-carbonyl)hexahydropyrrolo[3,4-c]pyrrol-2(1H)-yl)ethyl)-4-(3-fluorophenyl)piperidin-1-yl)-3,3-dimethylbutan-1-one] | 6.47
Cc1ncnc(C)c1C(=O)N1C[C@H]2CN(CCC3(c4ccccc4)CN(C(=O)C(C)(C)CO)C3)C[C@H]2C1 [1-(3-(2-((3aR,6aS)-5-(4,6-dimethylpyrimidine-5-carbonyl)hexahydropyrrolo[3,4-c]pyrrol-2(1H)-yl)ethyl)-3-phenylazetidin-1-yl)-3-hydroxy-2,2-dimethylpropan-1-one] | 6.51
Cc1nc(C(F)(F)F)nc(C)c1C(=O)N1C[C@H]2CN(CCC3(c4ccccc4)CN(C(=O)C4CC(F)(F)C4)C3)C[C@H]2C1 [((3aR,6aS)-5-(2-(1-(3,3-difluorocyclobutanecarbonyl)-3-phenylazetidin-3-yl)ethyl)hexahydropyrrolo[3,4-c]pyrrol-2(1H)-yl)(4,6-dimethyl-2-(trifluoromethyl)pyrimidin-5-yl)methanone] | 6.77
Cc1cc(C#N)nc(C)c1C(=O)N1C[C@H]2CN(CCC3(c4cccc(F)c4)CCN(C(=O)C(C)(C)C)CC3)C[C@H]2C1 [5-((3aR,6aS)-5-(2-(4-(3-fluorophenyl)-1-pivaloylpiperidin-4-yl)ethyl)octahydropyrrolo[3,4-c]pyrrole-2-carbonyl)-4,6-dimethylpicolinonitrile] | 7.43
Cc1nc(C(F)(F)F)nc(C)c1C(=O)N1C[C@H]2CN(CCC3(c4ccccc4)CN(C(=O)C4CCOC4)C3)C[C@H]2C1 (stereo partly drawn) [(4,6-dimethyl-2-(trifluoromethyl)pyrimidin-5-yl)((3aR,6aS)-5-(2-(3-phenyl-1-(tetrahydrofuran-3-carbonyl)azetidin-3-yl)ethyl)hexahydropyrrolo[3,4-c]pyrrol-2(1H)-yl)methanone] | 7.04
Cc1ncnc(C)c1C(=O)N1C[C@H]2CN(CCC3(c4ccccc4)CN(C(=O)C4CCC(F)(F)CC4)C3)C[C@H]2C1 [((3aR,6aS)-5-(2-(1-(4,4-difluorocyclohexanecarbonyl)-3-phenylazetidin-3-yl)ethyl)hexahydropyrrolo[3,4-c]pyrrol-2(1H)-yl)(4,6-dimethylpyrimidin-5-yl)methanone] | 8.00
Cc1cc(C#N)nc(C)c1C(=O)N1C[C@H]2CN(CCC3(c4ccccc4)CN(C(=O)C4CC(F)(F)C4)C3)C[C@H]2C1 [5-((3aR,6aS)-5-(2-(1-(3,3-difluorocyclobutanecarbonyl)-3-phenylazetidin-3-yl)ethyl)octahydropyrrolo[3,4-c]pyrrole-2-carbonyl)-4,6-dimethylpicolinonitrile] | 9.00
Cc1ncnc(C)c1C(=O)N1C[C@H]2CN(CCC3(c4ccccc4)CN(C(=O)C(C)(C)C)C3)C[C@H]2C1 [1-(3-(2-((3aR,6aS)-5-(4,6-dimethylpyrimidine-5-carbonyl)hexahydropyrrolo[3,4-c]pyrrol-2(1H)-yl)ethyl)-3-phenylazetidin-1-yl)-2,2-dimethylpropan-1-one] | 6.73
Cc1ncnc(C)c1C(=O)N1C[C@H]2CN(CCC3(c4ccccc4)CN(C(=O)C4CC(F)(F)C4)C3)C[C@H]2C1 [((3aR,6aS)-5-(2-(1-(3,3-difluorocyclobutanecarbonyl)-3-phenylazetidin-3-yl)ethyl)hexahydropyrrolo[3,4-c]pyrrol-2(1H)-yl)(4,6-dimethylpyrimidin-5-yl)methanone] | 7.03
Cc1ncnc(C)c1C(=O)N1C[C@H]2CN(CCC3(c4cccc(F)c4)CCN(C(=O)C(C)C)CC3)C[C@H]2C1 [1-(4-(2-((3aR,6aS)-5-(4,6-dimethylpyrimidine-5-carbonyl)hexahydropyrrolo[3,4-c]pyrrol-2(1H)-yl)ethyl)-4-(3-fluorophenyl)piperidin-1-yl)-2-methylpropan-1-one] | 6.80
Cc1nc(C(F)(F)F)nc(C)c1C(=O)N1C[C@H]2CN(CCC3(c4ccccc4)CN(C(=O)C4CCC(F)(F)CC4)C3)C[C@H]2C1 [((3aR,6aS)-5-(2-(1-(4,4-difluorocyclohexanecarbonyl)-3-phenylazetidin-3-yl)ethyl)hexahydropyrrolo[3,4-c]pyrrol-2(1H)-yl)(4,6-dimethyl-2-(trifluoromethyl)pyrimidin-5-yl)methanone] | 8.30
Cc1ncnc(C)c1C(=O)N1C[C@H]2CN(CCC3(c4ccccc4)CN(S(=O)(=O)C4CCCC4)C3)C[C@H]2C1 [((3aR,6aS)-5-(2-(1-(cyclopentylsulfonyl)-3-phenylazetidin-3-yl)ethyl)hexahydropyrrolo[3,4-c]pyrrol-2(1H)-yl)(4,6-dimethylpyrimidin-5-yl)methanone] | 6.34
CC(=O)N1CCC(CCN2C[C@@H]3CN(C(=O)c4c(C)ncnc4C)C[C@@H]3C2)(c2cccc(F)c2)CC1 [1-(4-(2-((3aR,6aS)-5-(4,6-dimethylpyrimidine-5-carbonyl)hexahydropyrrolo[3,4-c]pyrrol-2(1H)-yl)ethyl)-4-(3-fluorophenyl)piperidin-1-yl)ethanone] | < 5.60
Cc1ccnc(C)c1C(=O)N1C[C@H]2CN(CCC3(c4ccccc4)CN(C(=O)C4CCC(F)(F)CC4)C3)C[C@H]2C1 [((3aR,6aS)-5-(2-(1-(4,4-difluorocyclohexanecarbonyl)-3-phenylazetidin-3-yl)ethyl)hexahydropyrrolo[3,4-c]pyrrol-2(1H)-yl)(2,4-dimethylpyridin-3-yl)methanone] | 7.82
Cc1cc(C#N)nc(C)c1C(=O)N1C[C@H]2CN(CCC3(c4ccccc4)CCN(C(=O)C4CCCC4)C3)C[C@H]2C1 (stereo partly drawn) [5-((3aR,6aS)-5-(2-(1-(cyclopentanecarbonyl)-3-phenylpyrrolidin-3-yl)ethyl)octahydropyrrolo[3,4-c]pyrrole-2-carbonyl)-4,6-dimethylpicolinonitrile] | 7.07
Cc1cc(C#N)nc(C)c1C(=O)N1C[C@H]2CN(CCC3(c4ccccc4)CCN(C(=O)C(C)(C)C)C3)C[C@H]2C1 (stereo partly drawn) [4,6-dimethyl-5-((3aR,6aS)-5-(2-(3-phenyl-1-pivaloylpyrrolidin-3-yl)ethyl)octahydropyrrolo[3,4-c]pyrrole-2-carbonyl)picolinonitrile] | 6.44
Cc1cc(C(F)(F)F)nc(C)c1C(=O)N1C[C@H]2CN(CCC3(c4ccccc4)CN(C(=O)C4CC(F)(F)C4)C3)C[C@H]2C1 [((3aR,6aS)-5-(2-(1-(3,3-difluorocyclobutanecarbonyl)-3-phenylazetidin-3-yl)ethyl)hexahydropyrrolo[3,4-c]pyrrol-2(1H)-yl)(2,4-dimethyl-6-(trifluoromethyl)pyridin-3-yl)methanone] | 8.52
Cc1ncnc(C)c1C(=O)N1C[C@H]2CN(CCC3(c4ccccc4)CCN(C(=O)C(C)(C)C)C3)C[C@H]2C1 (stereo partly drawn) [1-(3-(2-((3aR,6aS)-5-(4,6-dimethylpyrimidine-5-carbonyl)hexahydropyrrolo[3,4-c]pyrrol-2(1H)-yl)ethyl)-3-phenylpyrrolidin-1-yl)-2,2-dimethylpropan-1-one] | 5.71
Cc1cc(C(F)(F)F)nc(C)c1C(=O)N1C[C@H]2CN(CCC3(c4ccccc4)CN(C(=O)C4CCC(F)(F)CC4)C3)C[C@H]2C1 [((3aR,6aS)-5-(2-(1-(4,4-difluorocyclohexanecarbonyl)-3-phenylazetidin-3-yl)ethyl)hexahydropyrrolo[3,4-c]pyrrol-2(1H)-yl)(2,4-dimethyl-6-(trifluoromethyl)pyridin-3-yl)methanone] | 8.70
